Measurements from patent US10722597B2, “Cyclodextrin-panobinostat adduct” (MIDATECH LTD., priority 2016, dated 2020).

Legend:
[1] = system: HEPG2 (Hepatocellular carcinoma) cell line; test: MTT cell viability (cytotoxicity); format: cell-based; conditions: HEPG2, 48 or 72 hrs exposure
Procedure: (§1) Error bars indicate plus or minus standard deviation of triplicate samples. N=1 experimental replicate.
(§2) Cell viability was then assessed using MTT reagent.

[2] = system: U87MG (Glioblastoma) cell line; test: MTT cell viability (cytotoxicity); format: cell-based; conditions: 48 or 72 hrs exposure
Procedure: as §1, §2

[3] = HPLC stability of 10 mM panobinostat stock solutions at room temperature; format: physicochemical
Procedure: Samples were diluted to allow analysis by HPLC (to avoid overloading the system). Peak areas were measured for both solutions at time 0, 100 h and 150 h post preparation. Samples were stored at room temperature over the course of the analysis. Percentage change was calculated based on the peak area and compared to analysis at time zero. One replicate was analysed and 7.2 μl was injected (equivalent to 0.25 μg on column) for each sample. The concentration of the stock solutions assessed was 10 mM. Column: Ascentis Express Peptide, ES-C18, 10 cm×4.6 mm Mobile phases: 0.1% trifluoroacetic acid (TFA) in acetonitrile (organic) and 0.1% trifluoroacetic acid in water HPLC: Agilent 1260 infinity HPLC conditions used: […]

[4] = Solubility of panobinostat free base in aqueous media; format: physicochemical
Procedure: The pH of the first aqueous solution is in the range 2.0 to 4.0, for example 2.5 to 3.5. Preferably, the pH of the first aqueous solution is about 3.0.
It is similarly insoluble in concentrated aqueous solutions of 2-hydroxypropyl-β-cyclodextrin (HP-β-CD) (450 mg/ml).

Row | Decrease of Panobinostat concentration ([3]; DMSO solution, 100 hrs) [%] | Decrease of Panobinostat concentration ([3]; DMSO solution, 150 hrs) [%] | Decrease of Panobinostat concentration ([3]; citrate solution, 100 hrs) [%] | Decrease of Panobinostat concentration ([3]; citrate solution, 150 hrs) [%] | solubility ([4]; aqueous buffer, thermodynamic from solid, free base, citrate buffer at pH 3.0, read-out: Soluble concentration in citrate buffer) [mM] | Solubility in citrate buffer ([4]; citrate buffer at pH 3.0) | Solubility in concentrated aqueous 2-hydroxypropyl-β-cyclodextrin ([4]; free base, HP-β-CD 450 mg/ml) | Solubility in water ([4]; free base, water) | Compound | Toxicity (cell viability, MTT) [1] | Toxicity (cell viability, MTT) [2]
1 |  |  |  |  |  |  |  |  | 2-hydroxypropyl-β-cyclodextrin | essentially non-toxic | essentially non-toxic
2 | 2.8 | 4.4 | 0.4 | 1 | ≥ 10 | soluble | insoluble | poorly soluble | Cc1[nH]c2ccccc2c1CCNCc1ccc(/C=C/C(=O)NO)cc1 [Panobinostat, 2-(E)-N-hydroxy-3-[4[[[2-(2-methyl-1H-indol-3-yl)ethyl]amino]methyl]phenyl]-2-propenamide] |  | 
